Test results: patent publication US10780084B2, “Antibody-recruiting molecules for the treatment of cancer” (YALE UNIVERSITY, priority 2016, dated 2020)
pIC50, pKi: −log10 of the molar value.

Biological target: T1, recombinant uPAR (Homo sapiens, UniProt Q03405)
T1 construct: purchased R&D systems
Test: Competitive ELISA uPAR binding assay (displacement of uPAR from immobilized urokinase)
Details: for pIC50 / pKi: ELISA assay, competition with urokinase for recombinant uPAR; for Ratio of IC50 (Compound)/IC50 6-ABT-1: relative to control 6-ABT-1
Description: The affinity of derivatives are assayed using a competitive ELISA binding assay. The assay involves the immobilization of urokinase, a natural high affinity ligand for uPAR followed by the addition of a fixed concentration of recombinant uPAR protein and increasing concentrations of test compounds which competes with urokinase for binding to the uPA binding site of uPAR. Following several washing steps, the amount of uPAR bound is quantified by a biotinylated anti-uPAR antibody and avidin-HRP and can be fit to a competitive binding model allowing for determination of the uPAR/test compound Kd.
All derivatives were assessed for their ability to hind selectively to recombinant uPAR in vitro using a competitive ELISA binding assay. DMSO stock solutions of each derivative stored at −20° C. were titrated into wells pre-coated with human urokinase (isolated from human urine, ProSpec 1 mg/mL deionized water 18.5 μM) in the presence of uPAR. Selective binding to uPAR by compounds at the uPA binding site competes with uPAR-uPA binding which is required for a positive UV 450 nm absorbance signal. Increasing concentrations of test compound displace increasing amounts of uPAR from uPA which is detected by anti-uPAR/biotin labeled antibodies followed by avidin-HRP.
ELISA assay substantially as described above was used to test certain of the compounds of the present invention for biological characteristics. In addition, the compound 6-ABT-1 as described in WO2017/023994 was tested as a control.

T1 sequence (Q03405 23-305): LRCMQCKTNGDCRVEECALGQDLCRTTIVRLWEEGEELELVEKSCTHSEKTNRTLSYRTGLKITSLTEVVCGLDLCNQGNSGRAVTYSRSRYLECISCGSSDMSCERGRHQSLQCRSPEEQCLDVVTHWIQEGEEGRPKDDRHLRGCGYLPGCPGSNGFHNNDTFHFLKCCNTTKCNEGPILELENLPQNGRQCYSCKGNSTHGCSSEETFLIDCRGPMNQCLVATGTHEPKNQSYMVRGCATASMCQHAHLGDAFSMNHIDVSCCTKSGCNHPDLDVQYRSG

| SMILES | pIC50 | pKi | Ratio of IC50 (Compound)/IC50 6-ABT-1 |
| --- | --- | --- | --- |
| COC(=O)c1cc(OC)ccc1Nc1cc(N2CCC(C(=O)NCCCOCCOCCOCCCNc3ccc([N+](=O)[O-])cc3[N+](=O)[O-])CC2)c2noc3c2c1C(=O)c1ccccc1-3 [ARM-U2 derivative 17-ABT-5] | < 4.00 | < 5.70 | >31 |
| CCOC(=O)c1cn(C)nc1Nc1cc(N2CCC(C(=O)NCCCOCCOCCOCCCNc3ccc([N+](=O)[O-])cc3[N+](=O)[O-])CC2)c2noc3c2c1C(=O)c1ccccc1-3 [ARM-U2 derivative 16-ABT-5] | 4.26 | 5.94 | 39.41 |
| NS(=O)(=O)c1ccc(Nc2cc(N3CCC(C(=O)NCCCOCCOCCOCCCNc4ccc([N+](=O)[O-])cc4[N+](=O)[O-])CC3)c3noc4c3c2C(=O)c2ccccc2-4)cc1 [ARM-U2 derivative 14-ABT-5] | < 4.00 | < 5.70 | 71.4 |
| COC(=O)c1cc(Nc2cc(N3CCC(C(=O)NCCCOCCOCCOCCCNc4ccc([N+](=O)[O-])cc4[N+](=O)[O-])CC3)c3noc4c3c2C(=O)c2ccccc2-4)nn1C [ARM-U2 derivative 13-ABT-5] | < 4.00 | < 5.70 | 71.4 |
| COC(=O)c1ccc(Nc2cc(N3CCC(C(=O)NCCCOCCOCCOCCCNc4ccc([N+](=O)[O-])cc4[N+](=O)[O-])CC3)c3noc4c3c2C(=O)c2ccccc2-4)c(C(=O)OC)c1 [ARM-U2 derivative 11-ABT-5] | < 4.00 | < 5.70 | >56 |
| O=C1c2ccccc2-c2onc3c(N4CCC(C(=O)NCCCOCCOCCOCCCNc5ccc([N+](=O)[O-])cc5[N+](=O)[O-])CC4)cc(Nc4ccc(S(=O)(=O)O)cc4)c1c23 [ARM-U2 derivative 7-ABT-5] | 5.63 | 7.32 | 1.15 |
| O=C1c2ccccc2-c2onc3c(N4CCC(C(=O)NCCCOCCOCCOCCCNc5ccc([N+](=O)[O-])cc5[N+](=O)[O-])CC4)cc(Nc4ccc(S(=O)(=O)O)cc4S(=O)(=O)O)c1c23 [ARM-U2 derivative 6-ABT-5] | 6.26 | 7.96 | 0.7 |
| O=C(O)c1cc(Cl)ccc1Nc1cc(N2CCC(C(=O)NCCCOCCOCCOCCCNc3ccc([N+](=O)[O-])cc3[N+](=O)[O-])CC2)c2noc3c2c1C(=O)c1ccccc1-3 [ARM-U2 derivative 18-ABT-5] | 5.51 | 7.20 | 0.98 |
| O=C1c2ccccc2-c2onc3c(N4CCC(C(=O)NCCCOCCOCCOCCCNc5ccc([N+](=O)[O-])cc5[N+](=O)[O-])CC4)cc(Nc4ccc(Cl)cc4S(=O)(=O)O)c1c23 [ARM-U2 derivative 9-ABT-5] | 6.31 | 8.01 | 0.255 |
| O=C1c2ccccc2-c2onc3c(N4CCC(C(=O)NCCCOCCOCCOCCCNc5ccc([N+](=O)[O-])cc5[N+](=O)[O-])CC4)cc(Nc4cc(S(=O)(=O)O)ccc4S(=O)(=O)O)c1c23 [ARM-U2 derivative 19-ABT-5] | 5.59 | 7.28 | 0.81 |
| COC(=O)c1ccc(Nc2cc(N3CCC(C(=O)NCCCOCCOCCOCCCNc4ccc([N+](=O)[O-])cc4[N+](=O)[O-])CC3)c3noc4c3c2C(=O)c2ccccc2-4)c(Cl)c1 [ARM-U2 derivative 12-ABT-5] | < 4.00 | < 5.70 | 71.4 |
| COc1ccc(Nc2cc(N3CCC(C(=O)NCCCOCCOCCOCCCNc4ccc([N+](=O)[O-])cc4[N+](=O)[O-])CC3)c3noc4c3c2C(=O)c2ccccc2-4)c(S(=O)(=O)O)c1 [ARM-U2 derivative 8-ABT-5] | 6.27 | 7.96 | 0.28 |
| O=C1c2ccccc2-c2onc3c(N4CCC(C(=O)NCCCOCCOCCOCCCNc5ccc([N+](=O)[O-])cc5[N+](=O)[O-])CC4)cc(Nc4cc(C5CC5)no4)c1c23 [ARM-U2 derivative 15-ABT-5] | 4.74 | 6.43 | 12.85 |
| COC(=O)c1ccc(Nc2cc(N3CCC(C(=O)NCCCOCCOCCOCCCNc4ccc([N+](=O)[O-])cc4[N+](=O)[O-])CC3)c3noc4c3c2C(=O)c2ccccc2-4)cc1 [ARM-U2 derivative 10-ABT-5] | < 4.00 | < 5.70 | 71.4 |
